system: female Aedes aegypti (Orlando strain, 1952); assay: Minimum effective dosage testing, human skin (treated cloth patch); format: in vivo; conditions: treated cloth patch, 1 min test, high dose 1.5 mg/cm^2
Protocol: The test mosquitoes were female Aedes aegypti (Orlando strain, 1952) from the colony maintained at United States Department of Agriculture-Agricultural Research Service-Center for Medical, Agricultural and Veterinary Entomology (USDA-ARS-CMAVE) in Gainesville, Fla. Pupae were obtained from the colony and newly emerged mosquitoes were maintained on 10% sugar water and kept in laboratory cages at an ambient temperature of 28±1° C. and RH of 35-60%. Host seeking behavior was pre-selected in nulliparous female mosquitoes aged 6-10 days, indicated by flight upwind towards a potential host, from stock cages using a hand-draw box and trapped in a collection trap.
After 500 (±10%) females were collected in the trap, they were transferred to a test cage (approximately 59,000 cm^3 with dimensions 45×37.5×35 cm) and allowed to acclimatize for 17.5 (±2.5) min before testing was initiated. Just prior to the experiment, the pieces of treated cloth are removed from the vials and stapled onto card stock tabs (5×3 cm). Each piece of the cards and the assembly were hung on a drying rack using masking tape for 3-5 min. Participants in the study used latex gloves to pull a nylon stocking over their arm. A Velcro™-sealed vinyl sleeve was then placed over the forearm. […] The purpose of the nylon stocking was to produce a barrier between the dried cloth and the skin, thereby avoiding direct contact of chemical to skin. The dried cloth assembly was affixed over the opening in the sleeve and held in place with masking tape. Participants then inserted their arm with the sleeve and patch into a screened cage that contained female Ae. Aegypti mosquitoes. Tests were conducted on each control or treated patch for 1 min. A control patch (acetone solvent only, then dried) was tested prior to the start of experiments and evaluation of the same untreated control patch after every 10 tests. If 5 landings were not received on the control patch in 30 s, then tests were discontinued for 60 min. At the conclusion of testing the control patch was tested again. If five landings were not received within 30 s, the data for the replicate was discarded. When testing a patch treated with a candidate repellent, if approximately 1% or 5 mosquito bites were received during this one minute test, this compound was considered to have failed, i.e., was not repellent at that concentration. If a treated cloth patch received 0-4 bites within a minute, then it was considered as passed, i.e., repellent at that concentration of the test compound. The median concentration patch was tested in the first round and treated patches were then tested successively at higher or lower concentrations depending upon whether the previous patch failed or passed, respectively.
The time interval between each tested patch was <90 seconds until 10 successive tests had been conducted. If appreciable, mortality had occurred during testing, the number of knocked down mosquitoes are estimated and additional female mosquitoes are added to the cage to keep the available mosquitoes at approximately 500. The estimate of the MED was the lowest concentration that passed for each candidate. Observed MED values for each candidate compound were averaged across participants and reported as a mean MED±standard error.

Compound | Minimum Effective Dosage, Subject 3
O=C(C=Cc1ccccc1)OCCO [2-hydroxyethyl cinnamate] | 0.094 mg/cm^2

system: Northern house mosquitoes (Culex pipiens); assay: Long-term spatial repellency, static air repellency chamber, filter papers air-dried 5 hours; format: in vivo; conditions: Culex pipiens, 0.25 h; 1 mL of 0.5% solution in acetone, air-dried 5 hours; 15 min; read-out: Long-term Percentage repellency 15 min
Protocol: (§1) Northern house mosquitoes (Culex pipiens), a primary carrier of West Nile virus in eastern North America, were obtained from an established colony in the Medical Entomology Laboratory in the Department of Entomology at Iowa State University of Science and Technology, Ames Iowa. Mosquito rearing was performed by established protocols that are maintained by the Medical Entomology Laboratory. Repellency bioassays were performed with adult female mosquitoes that were 5-7 days post-emergent. […] Mosquitoes, prior to testing, were held at 27° C., 80% relative humidity, and on a 16:8 hr light:dark photoperiod.
(§2) Repellency bioassays were performed using a static air repellency chamber, which has been described in various publications by the Pesticide Toxicology Laboratory at Iowa State University of Science and Technology, Ames, Iowa Briefly, a 9-cm×60-cm glass tube was used to monitor the distribution of mosquitoes at 15 min, 30 min, 60 min, 90 min, 120 min, and 150 min after introducing mosquitoes into the static air repellency chamber. Treated filter papers were treated with 1 mL of 0.5% solution in acetone of the terpenoid analogs created in the lab and were exposed to ambient air for 5 hours before they were introduced into the spatial chamber for testing. This is a slight modification of the method described in Example 2, so as to evaluate the residual repellent character of these compounds on a treated surface after 5 hours. One end of the spatial chamber contained a treated filter paper, whereas the other (untreated) end of the spatial chamber was not treated with compound. Controls contained filter papers treated with acetone, the solvent used to make the 0.5% solutions. Each end of the repellency chamber was secured with a 100-mm Petri dish using celluloid tape. After securing the petri dishes with corresponding treated or untreated filter papers to the spatial chamber, mosquitoes were anesthetized with carbon dioxide, and approximately 20 female mosquitoes were placed into each repellency chamber for one replicate. The opening of the spatial repellency chamber was secured with celluloid tape to prevent their escape. Chambers were oriented in opposite directions from the previous replicate to account for any directional effect. Four replicates were performed for data analysis for both the control and treatment groups.
Data for spatial repellency, the percentage repellency, is reported at each of the respective time points in the figures and tables mentioned below in this disclosure. The percentage spatial repellency is the examination of the distribution of mosquitoes and is calculated using the following equation: […]

Compound | pest or weed control at 0.5 %
CC(C)=CCCC(C)CCO (stereo not shown) [citronellol, reference compound] | 30%
CC(=O)CCC(=O)OCCC(C)CCC=C(C)C (stereo not shown) [Compound 2183, citronellyl levulinate] | 35%
C=CC(C)(C)OC(=O)CC(C)CCC=C(C)C (stereo not shown) [Compound 2170, tert-prenyl citronellate] | 2.5%
Cc1ccc(C(C)C)c(OC(=O)C(C)(C)F)c1 [Compound 1121A, thymyl 2-fluoroisobutyrate] | 22.5%
CC(C)=CCCC(C)CCOC(=O)C(C)C (stereo not shown) [Compound 2204, citronellyl isobutyrate] | -5%
CC(C)=CCCC(C)CCOC(=O)CC(C)C (stereo not shown) [Compound 1034B, citronellyl isovalerate] | 30%
CC(C)=CCCC(C)CCOC(=O)C1CC(=O)C1 (stereo not shown) [Compound 3067, citronellyl 3-oxocyclobutanecarboxylate] | 12.5%

same assay, conditions: Culex pipiens, 1.5 h; 1 mL of 0.5% solution in acetone, air-dried 5 hours; 90 min; read-out: Long-term Percentage repellency 90 min

Compound | pest or weed control at 0.5 %
CC(C)=CCCC(C)CCO (stereo not shown) [citronellol, reference compound] | 25%
CC(=O)CCC(=O)OCCC(C)CCC=C(C)C (stereo not shown) [Compound 2183, citronellyl levulinate] | 45%
C=CC(C)(C)OC(=O)CC(C)CCC=C(C)C (stereo not shown) [Compound 2170, tert-prenyl citronellate] | 7.5%
Cc1ccc(C(C)C)c(OC(=O)C(C)(C)F)c1 [Compound 1121A, thymyl 2-fluoroisobutyrate] | 50%
CC(C)=CCCC(C)CCOC(=O)C(C)C (stereo not shown) [Compound 2204, citronellyl isobutyrate] | 7.5%
CC(C)=CCCC(C)CCOC(=O)CC(C)C (stereo not shown) [Compound 1034B, citronellyl isovalerate] | 30%
CC(C)=CCCC(C)CCOC(=O)C1CC(=O)C1 (stereo not shown) [Compound 3067, citronellyl 3-oxocyclobutanecarboxylate] | 0%

same assay, conditions: Culex pipiens, 2.5 h; 1 mL of 0.5% solution in acetone, air-dried 5 hours; 150 min; read-out: Long-term Percentage repellency 150 min

Compound | pest or weed control at 0.5 %
CC(C)=CCCC(C)CCO (stereo not shown) [citronellol, reference compound] | 25%
CC(=O)CCC(=O)OCCC(C)CCC=C(C)C (stereo not shown) [Compound 2183, citronellyl levulinate] | 55%
C=CC(C)(C)OC(=O)CC(C)CCC=C(C)C (stereo not shown) [Compound 2170, tert-prenyl citronellate] | -2.5%
Cc1ccc(C(C)C)c(OC(=O)C(C)(C)F)c1 [Compound 1121A, thymyl 2-fluoroisobutyrate] | 65%
CC(C)=CCCC(C)CCOC(=O)C(C)C (stereo not shown) [Compound 2204, citronellyl isobutyrate] | 10%
CC(C)=CCCC(C)CCOC(=O)CC(C)C (stereo not shown) [Compound 1034B, citronellyl isovalerate] | 32.5%
CC(C)=CCCC(C)CCOC(=O)C1CC(=O)C1 (stereo not shown) [Compound 3067, citronellyl 3-oxocyclobutanecarboxylate] | 25%

system: Northern house mosquitoes (Culex pipiens); assay: Short-term spatial repellency, static air repellency chamber; format: in vivo; conditions: Culex pipiens, 0.25 h; filter paper, 1 mL of 0.5% solution in acetone, air-dried 15 min; 15 min after introduction; read-out: Short-term Percentage repellency 15 min
Protocol: as §1, with “that emerged” for “that were”, “days previously.” for “days post-emergent.”
as §2, with “Treated filter papers were treated with 1 mL of 0.5% solution in acetone of the terpenoid analogs created in the lab and were exposed to ambient air for 5 hours before they were introduced into the spatial chamber for testing. This is a slight modification of the method described in Example 2, so as to evaluate the residual repellent character of these compounds on a treated surface after 5 hours.” left out
Data for spatial repellency, the percentage repellency, is reported at each of the respective time points in the figures and tables mentioned below. The percentage spatial repellency is the examination of the distribution of mosquitoes and is calculated using the following equation: […]

Compound | pest or weed control at 0.5 %
CC(C)=CCCC(C)CCO (stereo not shown) [citronellol, reference compound] | 32.5%
CC(=O)CCC(=O)OCCC(C)CCC=C(C)C (stereo not shown) [Compound 2183, citronellyl levulinate] | 35%
C=CC(C)(C)OC(=O)CC(C)CCC=C(C)C (stereo not shown) [Compound 2170, tert-prenyl citronellate] | 80%
Cc1ccc(C(C)C)c(OC(=O)C(C)(C)F)c1 [Compound 1121A, thymyl 2-fluoroisobutyrate] | 77.5%
CC(C)=CCCC(C)CCOC(=O)C(C)C (stereo not shown) [Compound 2204, citronellyl isobutyrate] | 25%
CC(C)=CCCC(C)CCOC(=O)CC(C)C (stereo not shown) [Compound 1034B, citronellyl isovalerate] | 17.5%
CC(C)=CCCC(C)CCOC(=O)C1CC(=O)C1 (stereo not shown) [Compound 3067, citronellyl 3-oxocyclobutanecarboxylate] | 47.5%

same assay, conditions: Culex pipiens, 1.5 h; filter paper, 1 mL of 0.5% solution in acetone, air-dried 15 min; 90 min; read-out: Short-term Percentage repellency 90 min

Compound | pest or weed control at 0.5 %
CC(C)=CCCC(C)CCO (stereo not shown) [citronellol, reference compound] | 80%
CC(=O)CCC(=O)OCCC(C)CCC=C(C)C (stereo not shown) [Compound 2183, citronellyl levulinate] | 45%
C=CC(C)(C)OC(=O)CC(C)CCC=C(C)C (stereo not shown) [Compound 2170, tert-prenyl citronellate] | 92.5%
Cc1ccc(C(C)C)c(OC(=O)C(C)(C)F)c1 [Compound 1121A, thymyl 2-fluoroisobutyrate] | 97.5%
CC(C)=CCCC(C)CCOC(=O)C(C)C (stereo not shown) [Compound 2204, citronellyl isobutyrate] | 80%
CC(C)=CCCC(C)CCOC(=O)CC(C)C (stereo not shown) [Compound 1034B, citronellyl isovalerate] | 77.5%
CC(C)=CCCC(C)CCOC(=O)C1CC(=O)C1 (stereo not shown) [Compound 3067, citronellyl 3-oxocyclobutanecarboxylate] | 60%

same assay, conditions: Culex pipiens, 2.5 h; filter paper, 1 mL of 0.5% solution in acetone, air-dried 15 min; 150 min; read-out: Short-term Percentage repellency 150 min

Compound | pest or weed control at 0.5 %
CC(C)=CCCC(C)CCO (stereo not shown) [citronellol, reference compound] | 87.5%
CC(=O)CCC(=O)OCCC(C)CCC=C(C)C (stereo not shown) [Compound 2183, citronellyl levulinate] | 55%
C=CC(C)(C)OC(=O)CC(C)CCC=C(C)C (stereo not shown) [Compound 2170, tert-prenyl citronellate] | 82.5%
Cc1ccc(C(C)C)c(OC(=O)C(C)(C)F)c1 [Compound 1121A, thymyl 2-fluoroisobutyrate] | 97.5%
CC(C)=CCCC(C)CCOC(=O)C(C)C (stereo not shown) [Compound 2204, citronellyl isobutyrate] | 90%
CC(C)=CCCC(C)CCOC(=O)CC(C)C (stereo not shown) [Compound 1034B, citronellyl isovalerate] | 82.5%
CC(C)=CCCC(C)CCOC(=O)C1CC(=O)C1 (stereo not shown) [Compound 3067, citronellyl 3-oxocyclobutanecarboxylate] | 62.5%
